Data published in US12173320B2, “Production of red blood cells and platelets from stem cells” (BOSTON MEDICAL CENTER CORPORATION, priority 2012, dated 2024).

Experiments:
Type in all cases: cell-based, human
[1] = tested on: AhR (CYP1B1 target gene expression) in MEPs; test: Quantitative RT-PCR of AhR target gene CYP1B1 in MEPs
Method: (§1) 6-formylindolo[3,2-b]carbazole (FICZ), an AHR small molecule agonist, and CH223191, an AHR competitive inhibitor were used for these assays. CH223191 was added to mesoderm cultures at Day 6 at 5 μM (lx) and 2.504 (0.5×). 0.2 μM FICZ was added to cultures at Day 7 and media was added daily. DMSO was used as a vehicle control.
RNA was extracted using the RNeasy kit (Qiagen) according to the manufacturer's instructions and DNase treated using the DNA-free kit (Ambion AM1906). Reverse transcription into cDNA was performed using the High Capacity cDNA Reverse Transcription Kit (Applied Biosystems 4368814). Quantitative (real time) PCR amplification of cDNA was performed using Taqman probes for AHR (Hs00169233 ml), CYP1B1 (Hs002382916 sl), HBA (Hs00361191 gl), HBB (Hs00758889 sl), HBG (Hs01629437 sl), vWF (Hs00169795 ml), PF4 (Hs00427220 gl), NF-E2 (Hs00232351 ml) and CD62P (Hs00927900 ml) and run on the Applied Biosystems StepOne machine. Relative gene expression was normalized to B-actin (Hs99999903 ml).
To characterize AhR expression and functionality in both undifferentiated iPSCs and directly differentiated MEPs, AhR protein levels were determined via Western blot in these populations. […] To test this hypothesis, the ability of FICZ to induce a prototypic AhR-target gene, CYPIB1, in iPSCs or, as a positive control, MEPs was assessed by quantitative RT-PCR.

iPSC-derived MEPs = test: Growth / expansion of MEP cultures (manual counts, trypan blue exclusion)
Method: Plots were gated first in FSC vs. SSC and then from that population for PI ‘ and PE Hoechst’. […] (B) Representative phase contrast images of MEP population+FICZ. (C) Growth curve of day 15 MEPs+/−[…] FICZ. Cells were counted manually using trypan blue exclusion. Graphical data and the associated statistics are the result of three independent experiments per group.
High passage iPSCs were plated onto matrigel coated 6-well plates in iPSC media conditioned on iMEFs for 24 hours and supplemented with 2 ng/ml Rho Kinase Inhibitor and 20 ng/ml bFGF. After two days, iPSC media was replaced with Mesoderm DO-1 media: RPMI (Invitrogen A1049101) supplemented with 5 ng/mlhBMP-4 (R&D 314-BP-010), 50 ng/ml hVEGF (R&D 293-VE-010), 25 ng/mlhWnt3a (R&D 287-TC-500) and 10% KOSR. At Day 2, Mesoderm DO-1 media was replaced with Mesoderm D2 media: RPMI supplemented with 5 ng/ml hBMP-4, 50 ng/mlhVEGF, 20 ng/ml bFGF and 10% KOSR. Mesoderm D3 media consisted of the following: StemPro 34 (Invitrogen 10639011), 5 ng/ml hBMP-4, 50 ng/mlhVEGF, and 20 ng/ml bFGF. Mesoderm media for days 4 and 5 consisted of: StemPro 34, 15 ng/mlhVEGF, and 5 ng/ml bFGF. Day 6 mesoderm media: 74% IMDM (Invitrogen 12330061), 24% Hams F12 (Mediatech 10-080-CV), 1% B27 supplement (Invitrogen 12587-010), 0.5% N2-supplement (Invitrogen 17502-048), 0.5% BSA (Sigma A3059), 50 ng/ml hVEGF, 100 ng/mlbFGF, 100 ng/ml hSCF (R&D 255-SC-010), 25 ng/ml hFlt3 Ligand (R&D 308-FKN-005). Day 7 media: 74% IMDM, 24% Hams F12, 1% B27 supplement, 0.5% N2-supplement, 0.5% BSA, 50 ng/ml hVEGF, 100 ng/ml bFGF, 100 ng/ml hSCF, 25 ng/ml hFlt3 Ligand, 50 ng/ml hTPO (Genentech G140BT), 10 ng/ml IL-6 (R&D 206-IL-010), 0.5 U/ml hEPOgen and 0.2 uM 6-formylindolo[3,2-b]carbazole (FICZ) (Santa Cruz SC300019). After Day 7, 0.5 ml of Day 7 media was added to the culture daily without aspirating the media from the previous day. All base media mixes included 2 mM L-Glutamine (Invitrogen 25030081), 4×10^-4M Monothioglycerol (Sigma M1753), 100 ug/ml Primocin, and 50 ug/ml Ascorbic Acid. Cells in suspension were collected and assayed at Days 10-13 or split for long-term culture.
as §1

day 30 MEPs = test: EDU incorporation proliferation assay; details: versus untreated cells
Text: In a subsequent experiment, […] (EDU) incorporation in day 30 MEPs was used to compare proliferation of FICZ-treated MEPS and control untreated MEPs, EDU is a labeling chemical that intercolates into the DNA of a cell and allows for the explicit tracking of proliferation.

CYP1B1 expression ([1]; Day 15 MEPs, with vs. without FICZ, normalized to β-actin): statistically significant increases
responsiveness to AhR agonist (CYP1B1 RT-PCR) ([1]; MEP, normalized to GAPDH): responsive
Compound: O=Cc1c2c(cc3c1=Nc1ccccc1-3)=Nc1ccccc1-2 [FICZ, 6-formylindolo[3,2-b]carbazole]
expansion of MEPs (cell number) (iPSC-derived MEPs; after addition of FICZ to cultures): from a few thousand to a billion cells in a few weeks
growth of MEPs (iPSC-derived MEPs; day 15 MEPs +/-0.2 μm FICZ, 2 week growth period, versus untreated): logarithmic expansion
time cells could be cultured (iPSC-derived MEPs; iPSC-derived MEPs under AhR agonism): > 120 days
proliferation by EDU incorporation (day 30 MEPs): far more proliferative than untreated cells
